Data from US20090269795A1, “Mutant alpha4betadelta GABAA receptor and methods of treating anxiety or irritability” (priority 2007, published 2009).

Legend:
[1] = test system: CA1 hippocampal pyramidal cells; assay: Tonic GABAergic current, perforated-patch voltage-clamp, hippocampal slice; type: cell-based, mouse
Procedure: Tonic current was recorded as the difference current produced by the selective GABAA receptor antagonist gabazine (120 μM) before and after 30 nM THP^4,29, while gramicidin perforated-patch recordings^33 were accomplished using 140 mM KCl plus 25 μg ml^−1 gramicidin in the pipet solution, recorded when the access resistance dropped to <60 MΩ after tight seal formation. Estimates of the direction of Cl^− current were obtained by recording using tight-seal cell-attached techniques^31 (>1 GΩ seal) in current clamp mode. A downward deflection signified outward (i.e., hyperpolarizing) Cl^− current.
One complication of whole-cell patch clamp recording is that normal ionic gradients are disrupted. Therefore, in order to verify that THP reduced tonic GABAergic currents in intact cells under conditions of unperturbed internal Cl^−, we directly recorded pharmacologically isolated tonic GABAergic current from the soma using perforated-patch voltage-clamp techniques in the hippocampal slice.

thalamic relay neurons = assay: Tonic current in thalamic relay neurons, slice; type: cell-based, mouse; conditions: pre-pubertal; n=6
Procedure: Hippocampal slice: Slice preparation^20: Animals were rapidly decapitated, and the brains removed and cooled using an ice cold solution of artificial cerebrospinal fluid (aCSF) containing (in mM): NaCl 124, KCl 5, CaCl2 2, KH2PO4 1.25, MgSO4 2, NaHCO3 26, and glucose 10, saturated with 95% O2, 5% CO2 and buffered to a pH of 7.4. Following sectioning at 400 μm on a Leica oscillating microtome, slices were incubated for one hour in oxygenated aCSF. Slice recording: Pyramidal cells in CA1 hippocampal slice^20 or thalamic relay neurons in the ventral tier were visualized using a Leica DIC-infrared upright microscope, and recorded at −50 or −60 mV using whole cell patch clamp procedures at room temperature (20-22° C., Axopatch 200B amplifier, Axon Instruments, 20 kHz sampling frequency, 2 kHz 4-pole Bessel filter) and pClamp 9.2 software. Patch pipets were fabricated to yield open tip resistances of 2-4 MΩ. Internal solution in mM for ECl=−70 (or ECl=−30): K-gluconate 141.5 (O), KCl 0 (52.3), CsCl 8.5 (145), HEPES 5, EGTA 5, CaCl2-H2O 0.5, QX-314 5 (Calbiochem), Mg-ATP 2, Li-GTP 0.5, pH 7.2, 290 mOsm. […] Electrode capacitance and series resistance were monitored and compensated; access resistance was monitored throughout the experiment, and cells discarded if the access resistance >10 MΩ. […]

## CC(=O)[C@H]1CC[C@H]2[C@@H]3CC[C@H]4C[C@H](O)CC[C@]4(C)[C@H]3CC[C@]12C [THP, 3α-OH-5α[β]-pregnan-20-one]
[1]; 30 nM THP, pubertal, 1 μM TTX, 1 μM GABA
  depression of outward GABAergic current: 40±8%
[1]; before puberty
  effect on post-synaptic GABAergic tonic current: had no effect
[1]; pubertal
  effect on reversal potential: did not alter the reversal potential
[1]; pubertal, 10 mV steps −60 to −40 mV
  effect on GABA-gated conductance (gabazine-sensitive slope): decreased the GABA-gated conductance
Thalamic relay neurons
  reduction of tonic current: 57±12%
